One may read the IC50 as the point on the concentration scale where inhibition reaches its midpoint.

For one test, the target named is CYP3A4 (Homo sapiens, UniProt P08684). As to the kind of experiment: P450-Glo CYP3A4 luciferin isopropylacetal (Luc-IP) assay.
In a further test the target is T1, Recombinant TDO (Homo sapiens, UniProt P48775).
T1 construct: Recombinant TDO (Seegers, N., et al.) and all other assay components were diluted in TDO reaction buffer
Nature of the test: Biochemical assay for TDO (NFK GreenScreen). The following applies: 50 nM TDO, 200 μM L-tryptophan. A digest of the protocol:
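Recombinant human TDO (50 nM) preincubated with compound 60 min at room temperature in 100 mM NaH2PO4 pH 7.0, 0.02% Tween-20, with ascorbic acid. Reaction then run 15 min with 200 μM L-tryptophan (final), 0.3% DMSO. NFK product detected by NFK Green fluorescence after 3 h at 37° C; IC50 derived.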

In test [1] the target is T2, TDO in SW48 colorectal carcinoma cells (Homo sapiens, UniProt P48775).
T2 construct: Endogenous expression of TDO has been determined in a variety of cancer cell lines; host or cells: SW48 colorectal carcinoma cells
As to the kind of experiment: Cell-based assay for TDO in SW48 colorectal carcinoma cells (NFK GreenScreen). The following applies: 18 hours with L-tryptophan.

In the next test the target is CYP2D6 (Homo sapiens, UniProt P10635). As to the kind of experiment: P450-Glo CYP2D6 Luc-IP assay.

SMILES strings stand for the structures. Where “and” joins values, the source holds several entries; their conditions need not be identical. Equal values may be shown once. Read-outs that look alike come from different tables or passages of the source.

Chain of CYP2D6 (P10635 whole entry): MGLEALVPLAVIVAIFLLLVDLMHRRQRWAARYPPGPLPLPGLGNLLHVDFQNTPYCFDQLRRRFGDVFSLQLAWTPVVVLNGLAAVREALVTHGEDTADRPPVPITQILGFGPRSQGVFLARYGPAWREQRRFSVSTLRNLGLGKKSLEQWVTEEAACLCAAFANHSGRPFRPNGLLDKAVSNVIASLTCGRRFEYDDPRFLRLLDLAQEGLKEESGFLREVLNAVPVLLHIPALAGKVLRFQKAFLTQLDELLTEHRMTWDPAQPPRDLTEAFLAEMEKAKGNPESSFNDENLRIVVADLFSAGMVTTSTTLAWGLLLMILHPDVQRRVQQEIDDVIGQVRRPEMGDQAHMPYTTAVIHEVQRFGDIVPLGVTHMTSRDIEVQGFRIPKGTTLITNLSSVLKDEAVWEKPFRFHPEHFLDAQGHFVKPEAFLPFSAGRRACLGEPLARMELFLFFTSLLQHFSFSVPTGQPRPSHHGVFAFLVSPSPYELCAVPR
Chain of CYP3A4 (P08684 whole entry): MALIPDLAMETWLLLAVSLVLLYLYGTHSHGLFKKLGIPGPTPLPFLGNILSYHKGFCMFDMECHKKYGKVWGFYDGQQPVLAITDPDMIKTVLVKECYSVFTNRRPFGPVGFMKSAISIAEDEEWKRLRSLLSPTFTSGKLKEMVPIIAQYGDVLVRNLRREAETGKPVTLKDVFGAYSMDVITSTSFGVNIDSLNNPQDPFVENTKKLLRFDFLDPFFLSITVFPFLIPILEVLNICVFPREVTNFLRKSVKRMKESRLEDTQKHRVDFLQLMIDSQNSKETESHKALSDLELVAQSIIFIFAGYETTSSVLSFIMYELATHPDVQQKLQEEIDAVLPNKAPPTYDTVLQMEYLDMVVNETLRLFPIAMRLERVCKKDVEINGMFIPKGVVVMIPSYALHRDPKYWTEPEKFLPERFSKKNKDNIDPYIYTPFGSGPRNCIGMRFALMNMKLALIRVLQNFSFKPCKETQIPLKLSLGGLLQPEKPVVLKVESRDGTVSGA
T2 sequence (P48775 whole entry): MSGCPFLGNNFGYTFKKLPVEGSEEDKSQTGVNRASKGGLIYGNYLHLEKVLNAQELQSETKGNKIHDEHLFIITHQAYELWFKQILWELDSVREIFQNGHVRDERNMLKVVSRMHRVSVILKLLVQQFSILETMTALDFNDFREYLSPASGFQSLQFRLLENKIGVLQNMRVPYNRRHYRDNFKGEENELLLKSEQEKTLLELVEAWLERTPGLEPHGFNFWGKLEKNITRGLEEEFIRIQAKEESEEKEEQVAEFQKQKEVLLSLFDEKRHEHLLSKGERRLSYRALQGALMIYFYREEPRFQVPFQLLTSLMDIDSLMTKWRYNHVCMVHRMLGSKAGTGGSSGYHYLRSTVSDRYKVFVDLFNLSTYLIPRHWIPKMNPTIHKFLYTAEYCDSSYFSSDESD
T1 sequence (P48775 whole entry): as above
Description for CYP3A4: To determine the inhibitory potency of compounds on CYP3A4 enzyme, the P450-Glo CYP3A4 luciferin isopropylacetal (Luc-IP) assay was used (Promega, Madison, Wis., USA, Cat. No. V9920). The assay makes use of a luminogenic isopropylacetal (IPA) substrate that is a derivative from beetle luciferin, a substrate of luciferase enzymes. The IPA substrate is converted by CYP3A4 to luciferin, which in turn reacts with luciferase to produce an amount of light that is directly proportional to the activity of CYP3A4. Compounds were serially diluted in DMSO and finally in 400 mM K2HPO4, pH 7.4. 5 μl of compound solution and 5 μl of CYP3A4/substrate solution were combined in the well of a white 384-well Optiplate (Perkin Elmer). The DMSO concentration in the assay was 0.1%. After incubation for 10 minutes at room temperature in the dark, 10 μl of NADPH regeneration system was added and incubation was continued for 10 min. Then, 20 μl of Luciferin Detection Reagent was added to stop the reaction, and incubation was continued for another 20 min. Luminescence was measured on an Envision multimode reader and IC50 values were calculated using XLfit™. […] Instead of in a 96-well plate, the assay was performed in 384-well white Perkin Elmer Optiplate (cat. no. 6007290).

On to `COCC(=O)Nc1ccc(-c2c[nH]c3cc(F)ccc23)cc1` [Example 27, N-[4-(6-fluoro-1H-indol-3-yl)phenyl]-2-methoxy-acetamide], for which the IC50 against CYP3A4 is over 10000 nM; at Recombinant TDO, under 1000 nM; in test [1] (read-out: IC50 on TDO in cells) it was ≤ 500 nM and 200 to 500 nM; against CYP2D6 it was over 10000 nM.
Turning to `O=C(Nc1ccc(-c2c[nH]c3cc(F)ccc23)cc1)C1CC12CCNCC2` (centres unmarked) [Example 97, N-[4-(6-Fluoro-1H-indol-3-yl)phenyl]-6-azaspiro[2.5]octane-2-carboxamide], the IC50 is over 10000 nM against CYP3A4; under 1000 nM on Recombinant TDO; ≤ 500 nM and 200 to 500 nM in test [1] (read-out: IC50 on TDO in cells); over 10000 nM against CYP2D6.
For `O=C(N[C@H]1CCCNC1)c1ccc(-c2c[nH]c3cc(F)ccc23)cc1F` [Example 125, 2-Fluoro-4-(6-fluoro-1H-indol-3-yl)-N-[(3S)-3-piperidyl]benzamide], the IC50 against CYP3A4 was 5000 to 10000 nM; on Recombinant TDO, under 1000 nM; in test [1] (read-out: IC50 on TDO in cells), at most 200 nM; on CYP2D6, over 10000 nM.
`O=C(NCC(F)(F)F)c1c(F)cc(-c2c[nH]c3cc(F)ccc23)cc1F` [Example 57, 2,6-Difluoro-4-(6-fluoro-1H-indol-3-yl)-N-(2,2,2-trifluoroethyl)benzamide]: the IC50 is 5000 to 10000 nM on CYP3A4; under 1000 nM on Recombinant TDO; ≤ 500 nM and 200 to 500 nM in test [1] (read-out: IC50 on TDO in cells); 5000 to 10000 nM at CYP2D6.
Take `C[C@H](CO)NC(=O)c1ccc(-c2c[nH]c3cc(F)ccc23)cc1` [Example 14, 4-(6-fluoro-1H-indol-3-yl)-N-[(1R)-2-hydroxy-1-methyl-ethyl]benzamide]: the IC50 was over 10000 nM at CYP3A4; under 1000 nM at Recombinant TDO; ≤ 500 nM and 200 to 500 nM in test [1] (IC50 on TDO in cells); 5000 to 10000 nM against CYP2D6.
In the case of `O=C(NCCN1C[C@@H](O)[C@H](O)C1)c1ccc(-c2c[nH]c3cc(F)ccc23)cc1Cl` [Example 116, 2-Chloro-N-[2-[(3R,4R)-3,4-dihydroxypyrrolidin-1-yl]ethyl]-4-(6-fluoro-1H-indol-3-yl)benzamide], the IC50 against CYP3A4 was over 10000 nM; at Recombinant TDO, under 1000 nM; in test [1] (read-out: IC50 on TDO in cells), ≤ 500 nM and 200 to 500 nM; on CYP2D6, over 10000 nM.
In the case of `O=C(NCCN1CCCC1)c1ccc(-c2c[nH]c3cc(F)ccc23)cc1Cl` [Example 70, 2-Chloro-4-(6-fluoro-1H-indol-3-yl)-N-(2-pyrrolidin-1-ylethyl)benzamide], the IC50 against CYP3A4 is 5000 to 10000 nM; on Recombinant TDO, under 1000 nM; in test [1] (read-out: IC50 on TDO in cells), at most 200 nM; against CYP2D6, over 10000 nM.
As to `O=C(CC1CNCCO1)Nc1ccc(-c2c[nH]c3cc(F)ccc23)cc1` (centres unmarked) [Example 102, N-[4-(6-fluoro-1H-indol-3-yl)phenyl]-2-morpholin-2-yl-acetamide], the IC50 against CYP3A4 was 5000 to 10000 nM; at Recombinant TDO, under 1000 nM; in test [1] (read-out: IC50 on TDO in cells) it was ≤ 500 nM and 200 to 500 nM; at CYP2D6, over 10000 nM.
With `C[C@@H](CO)NC(=O)c1ccc(-c2c[nH]c3cc(F)ccc23)cc1F` [Example 123, 2-Fluoro-4-(6-fluoro-1H-indol-3-yl)-N-[(1S)-2-hydroxy-1-methyl-ethyl]benzamide], the IC50 on CYP3A4 is 5000 to 10000 nM; at Recombinant TDO, under 1000 nM; in test [1] (read-out: IC50 on TDO in cells), at most 200 nM; against CYP2D6 it was over 10000 nM.
Taken in the same sequence, the figures for `CCN(CC)CC(C)NC(=O)c1ccc(-c2c[nH]c3cc(F)ccc23)cc1` (centres unmarked) [Example 23, N-[2-(diethylamino)-1-methyl-ethyl]-4-(6-fluoro-1H-indol-3-yl)benzamide] were 5000 to 10000 nM, under 1000 nM, at most 200 nM and over 10000 nM.
In the case of `COc1cc(-c2c[nH]c3cc(F)ccc23)ccc1C(=O)N[C@H]1CCCNC1` [Example 75, 4-(6-Fluoro-1H-indol-3-yl)-2-methoxy-N-[(3S)-3-piperidyl]benzamide], the IC50 against CYP3A4 is 5000 to 10000 nM; on Recombinant TDO, under 1000 nM; in test [1] (read-out: IC50 on TDO in cells) it was at most 200 nM; on CYP2D6, over 10000 nM.
`O=C(NCCN1C[C@H](O)[C@@H](O)C1)c1ccc(-c2c[nH]c3cc(F)ccc23)cc1Cl` [Example 115, 2-Chloro-N-[2-[(3S,4S)-3,4-dihydroxypyrrolidin-1-yl]ethyl]-4-(6-fluoro-1H-indol-3-yl)benzamide]: the IC50 on CYP3A4 was over 10000 nM; on Recombinant TDO, under 1000 nM; in test [1] (read-out: IC50 on TDO in cells), ≤ 500 nM and 200 to 500 nM; against CYP2D6, over 10000 nM.
With `O=C(NC1COC1)c1ccc(-c2c[nH]c3cc(F)ccc23)cc1` [Example 26, 4-(6-Fluoro-1H-indol-3-yl)-N-(oxetan-3-yl)benzamide], the IC50 is over 10000 nM at CYP3A4; under 1000 nM on Recombinant TDO; ≤ 500 nM and 200 to 500 nM in test [1] (read-out: IC50 on TDO in cells); over 10000 nM at CYP2D6.
As for `CN1CCN(CC(=O)Nc2ccc(-c3c[nH]c4cc(F)ccc34)cc2)CC1` [Example 109, N-[4-(6-fluoro-1H-indol-3-yl)phenyl]-2-(4-methylpiperazin-1-yl)acetamide], the IC50 against CYP3A4 was over 10000 nM; at Recombinant TDO, under 1000 nM; in test [1] (read-out: IC50 on TDO in cells) it was ≤ 500 nM and 200 to 500 nM; on CYP2D6 it was over 10000 nM.
For `CN(C)CCCNC(=O)c1ccc(-c2c[nH]c3cc(F)ccc23)cc1F` [Example 124, N-[3-(dimethylamino)propyl]-2-fluoro-4-(6-fluoro-1H-indol-3-yl)benzamide], the IC50 on CYP3A4 was 5000 to 10000 nM; at Recombinant TDO, under 1000 nM; in test [1] (read-out: IC50 on TDO in cells), at most 200 nM; at CYP2D6, over 10000 nM.
Consider `CC(CN(C)C)NC(=O)c1ccc(-c2c[nH]c3cc(F)ccc23)cc1` (centres unmarked) [Example 1, N-[2-(dimethylamino)-1-methyl-ethyl]-4-(6-fluoro-1H-indol-3-yl)benzamide], for which the IC50 against CYP3A4 was over 10000 nM; at Recombinant TDO it was under 1000 nM; in test [1] (read-out: IC50 on TDO in cells) it was at most 200 nM; against CYP2D6, over 10000 nM.
`N[C@H]1CCC[C@@H](C(=O)Nc2ccc(-c3c[nH]c4cc(F)ccc34)cc2)C1` [Example 103, (1R,3S)-3-amino-N-[4-(6-fluoro-1H-indol-3-yl)phenyl]cyclohexanecarboxamide]: the IC50 at CYP3A4 was over 10000 nM; at Recombinant TDO, under 1000 nM; in test [1] (read-out: IC50 on TDO in cells), ≤ 500 nM and 200 to 500 nM; at CYP2D6, over 10000 nM.
On to `CC(CO)(CO)NC(=O)c1ccc(-c2c[nH]c3cc(F)ccc23)cc1` [Example 48, 4-(6-Fluoro-1H-indol-3-yl)-N-[2-hydroxy-1-(hydroxymethyl)-1-methyl-ethyl]benzamide], for which the IC50 was over 10000 nM against CYP3A4; under 1000 nM on Recombinant TDO; ≤ 500 nM and 200 to 500 nM in test [1] (read-out: IC50 on TDO in cells); over 10000 nM against CYP2D6.
Consider `CN(C)CCCNC(=O)c1ccc(-c2c[nH]c3cc(F)ccc23)cc1Cl` [Example 52, 2-Chloro-N-[3-(dimethylamino)propyl]-4-(6-fluoro-1H-indol-3-yl)benzamide], for which the IC50 against CYP3A4 is over 10000 nM; at Recombinant TDO it was under 1000 nM; in test [1] (read-out: IC50 on TDO in cells), at most 200 nM; at CYP2D6 it was over 10000 nM.
`COc1cc(-c2c[nH]c3cc(F)ccc23)ccc1C(=O)N[C@H](C)CO` [Example 111, 4-(6-Fluoro-1H-indol-3-yl)-N-[(1R)-2-hydroxy-1-methyl-ethyl]-2-methoxy-benzamide]: the IC50 on CYP3A4 was over 10000 nM; at Recombinant TDO it was 1000 to 5000 nM; in test [1] (read-out: IC50 on TDO in cells), ≤ 500 nM and 200 to 500 nM; against CYP2D6 it was over 10000 nM.
`COc1cc(-c2c[nH]c3cc(F)ccc23)ccc1C(=O)N[C@@H](C)CO` [Example 136, 4-(6-Fluoro-1H-indol-3-yl)-N-[(1S)-2-hydroxy-1-methyl-ethyl]-2-methoxy-benzamide]: the IC50 against CYP3A4 is over 10000 nM; at Recombinant TDO it was under 1000 nM; in test [1] (read-out: IC50 on TDO in cells) it was ≤ 500 nM and 200 to 500 nM; against CYP2D6, over 10000 nM.
On to `CN1CCC(NC(=O)c2ccc(-c3c[nH]c4cc(F)ccc34)cc2)CC1` [Example 24, 4-(6-Fluoro-1H-indol-3-yl)-N-(1-methyl-4-piperidyl)benzamide], for which the IC50 is over 10000 nM against CYP3A4, under 1000 nM at Recombinant TDO, at most 200 nM in test [1] (read-out: IC50 on TDO in cells) and over 10000 nM against CYP2D6.
On to `Cc1cc(C(=O)NCCCN(C)C)ccc1-c1c[nH]c2cc(F)ccc12` [Example 127, N-[3-(dimethylamino)propyl]-4-(6-fluoro-1H-indol-3-yl)-3-methyl-benzamide], for which the IC50 was over 10000 nM against CYP3A4; under 1000 nM at Recombinant TDO; ≤ 500 nM and 200 to 500 nM in test [1] (read-out: IC50 on TDO in cells); over 10000 nM on CYP2D6.
For `C[C@H](CO)NC(=O)c1c(F)cc(-c2c[nH]c3cc(F)ccc23)cc1F` [Example 56, 2,6-Difluoro-4-(6-fluoro-1H-indol-3-yl)-N-[(1R)-2-hydroxy-1-methyl-ethyl]benzamide], the IC50 against CYP3A4 was over 10000 nM; at Recombinant TDO it was under 1000 nM; in test [1] (read-out: IC50 on TDO in cells), ≤ 500 nM and 200 to 500 nM; on CYP2D6 it was over 10000 nM.
Consider `CC(=O)Nc1ccc(-c2c[nH]c3cc(F)ccc23)cc1` [Example 4, N-[4-(6-Fluoro-1H-indol-3-yl)phenyl]acetamide], for which the IC50 at CYP3A4 was over 10000 nM; at Recombinant TDO it was under 1000 nM; in test [1] (read-out: IC50 on TDO in cells) it was ≤ 500 nM and 200 to 500 nM; on CYP2D6 it was over 10000 nM.
With `O=C(N[C@H]1CN2CCC1CC2)c1ccc(-c2c[nH]c3cc(F)ccc23)cc1` [Example 133, 4-(6-Fluoro-1H-indol-3-yl)-N-[(3R)-quinuclidin-3-yl]benzamide], the IC50 against CYP3A4 is over 10000 nM; at Recombinant TDO, under 1000 nM; in test [1] (read-out: IC50 on TDO in cells), at most 200 nM; against CYP2D6, over 10000 nM.

These data come from patent US10689343B2, “Inhibitors of tryptophan 2,3-dioxygenase” (NETHERLANDS TRANSLATIONAL RESEARCH CENTER B.V., priority 2016, dated 2020).
